Publication PMC11315827 (Drugs in R&D, 2024)
Several values for one entry are separate records, joined by “and”; a condition that tells them apart may be missing. Equal entries are not always repeated.

Experiments:
[1] = Nonhuman primate PK study, plasma and CSF; conditions: for unbound partition coefficient Kp,uu CSF: based on plasma free fractions; for half-life / Cmax: male, cynomolgus monkey, in vivo, po; for Cmax: plasma Cmax
[2] = target: BLK (Homo sapiens, UniProt P51451); assay: Kinase screening assays
[3] = target: T1, BMX (Homo sapiens, UniProt P51813); assay: Kinase screening assays
T1 sequence (P51813 1-675): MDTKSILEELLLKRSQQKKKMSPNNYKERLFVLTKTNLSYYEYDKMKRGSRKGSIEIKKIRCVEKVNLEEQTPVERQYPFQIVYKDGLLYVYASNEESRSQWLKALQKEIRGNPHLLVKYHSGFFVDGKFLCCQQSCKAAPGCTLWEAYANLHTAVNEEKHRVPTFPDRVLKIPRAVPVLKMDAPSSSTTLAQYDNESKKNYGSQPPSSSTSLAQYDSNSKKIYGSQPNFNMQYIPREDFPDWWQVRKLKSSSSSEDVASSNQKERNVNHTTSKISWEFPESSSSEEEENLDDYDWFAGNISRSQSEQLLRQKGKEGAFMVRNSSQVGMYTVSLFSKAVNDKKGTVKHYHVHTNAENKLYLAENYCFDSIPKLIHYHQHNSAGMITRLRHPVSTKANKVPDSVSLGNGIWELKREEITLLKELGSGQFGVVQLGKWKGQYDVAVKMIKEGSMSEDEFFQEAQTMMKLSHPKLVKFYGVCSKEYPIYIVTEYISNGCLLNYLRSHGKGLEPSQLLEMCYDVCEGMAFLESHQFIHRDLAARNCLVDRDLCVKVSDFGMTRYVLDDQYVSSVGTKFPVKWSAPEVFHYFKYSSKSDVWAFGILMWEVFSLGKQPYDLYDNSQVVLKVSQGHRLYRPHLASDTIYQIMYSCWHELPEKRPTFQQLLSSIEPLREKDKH

[4] = target: T2, TXK (Homo sapiens, UniProt P42681); assay: Kinase screening assays
T2 sequence (P42681 1-527): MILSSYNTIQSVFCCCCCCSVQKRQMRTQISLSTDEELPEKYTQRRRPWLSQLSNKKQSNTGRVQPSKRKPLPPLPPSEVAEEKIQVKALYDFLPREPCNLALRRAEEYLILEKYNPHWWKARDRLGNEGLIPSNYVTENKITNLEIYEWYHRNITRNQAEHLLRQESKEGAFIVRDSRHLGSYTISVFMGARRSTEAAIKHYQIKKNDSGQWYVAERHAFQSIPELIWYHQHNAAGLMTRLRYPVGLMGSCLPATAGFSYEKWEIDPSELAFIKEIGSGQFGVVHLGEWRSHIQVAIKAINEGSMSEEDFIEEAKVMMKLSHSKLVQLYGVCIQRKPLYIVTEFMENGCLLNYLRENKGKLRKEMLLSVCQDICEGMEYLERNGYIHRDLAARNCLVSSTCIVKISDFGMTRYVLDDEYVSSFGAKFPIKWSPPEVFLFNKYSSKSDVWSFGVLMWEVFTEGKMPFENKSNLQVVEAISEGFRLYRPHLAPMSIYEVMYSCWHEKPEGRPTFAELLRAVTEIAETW

[5] = target: BTK (Homo sapiens, UniProt Q06187); conditions: "reported as"; cited from earlier work
[6] = tested on: Ramos cell expression of CD69 (BTK signaling); assay: cells; conditions: Homo sapiens, 18 h, read-out: apparent IC50 (CD69 expression)

BTK, sequence (Q06187 whole entry): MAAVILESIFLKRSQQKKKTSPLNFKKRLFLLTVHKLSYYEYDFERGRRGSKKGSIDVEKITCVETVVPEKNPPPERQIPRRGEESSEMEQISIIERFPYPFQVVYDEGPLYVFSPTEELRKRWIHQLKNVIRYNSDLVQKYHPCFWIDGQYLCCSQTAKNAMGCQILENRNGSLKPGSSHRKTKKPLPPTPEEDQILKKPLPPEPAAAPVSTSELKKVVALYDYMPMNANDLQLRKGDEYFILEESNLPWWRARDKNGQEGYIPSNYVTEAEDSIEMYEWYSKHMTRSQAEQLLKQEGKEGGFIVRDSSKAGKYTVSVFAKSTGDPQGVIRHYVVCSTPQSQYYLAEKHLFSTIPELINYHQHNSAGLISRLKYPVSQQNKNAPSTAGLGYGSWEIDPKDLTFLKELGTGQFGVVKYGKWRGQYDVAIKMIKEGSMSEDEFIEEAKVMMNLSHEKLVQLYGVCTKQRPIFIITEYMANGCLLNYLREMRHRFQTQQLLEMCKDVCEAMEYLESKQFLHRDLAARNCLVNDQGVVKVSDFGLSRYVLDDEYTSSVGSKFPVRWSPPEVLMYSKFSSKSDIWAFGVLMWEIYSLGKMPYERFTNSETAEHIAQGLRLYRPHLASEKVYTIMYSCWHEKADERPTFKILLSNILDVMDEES
BLK, sequence (P51451 whole entry, species assumed): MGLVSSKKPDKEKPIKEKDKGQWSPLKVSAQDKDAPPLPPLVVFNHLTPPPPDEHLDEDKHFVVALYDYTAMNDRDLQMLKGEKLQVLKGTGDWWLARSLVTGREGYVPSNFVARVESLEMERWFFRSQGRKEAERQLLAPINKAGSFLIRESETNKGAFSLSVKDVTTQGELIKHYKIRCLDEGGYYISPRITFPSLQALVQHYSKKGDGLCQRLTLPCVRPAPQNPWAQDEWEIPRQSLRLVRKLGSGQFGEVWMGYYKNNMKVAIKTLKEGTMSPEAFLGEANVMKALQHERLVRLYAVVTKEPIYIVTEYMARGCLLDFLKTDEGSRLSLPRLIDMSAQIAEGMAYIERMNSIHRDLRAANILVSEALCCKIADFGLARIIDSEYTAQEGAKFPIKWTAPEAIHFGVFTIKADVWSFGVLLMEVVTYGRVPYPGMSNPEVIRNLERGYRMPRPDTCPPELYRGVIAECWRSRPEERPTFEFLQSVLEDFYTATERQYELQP

Compound | unbound partition coefficient Kp,uu CSF [1] | half-life ([1]; 10 mg/kg) [h] | Cmax ([1]; 10 mg/kg, oral 10 mg/kg) | CSF Cmax ([1]; CSF, oral 10 mg/kg) [nM] | CSF exposure (Cmax) ([1]; CSF, oral 10 mg/kg, 10 mg/kg) [ng/mL] | IC50 [2] [nM] | IC50 [3] [nM] | IC50 [4] [nM] | dissociation rate [5] [s⁻¹] | IC50 [6] [nM] | terminal t1/2 for elimination ([1]; plasma, oral 10 mg/kg)
C=CC(=O)N1CCC(CNc2ncnc(N)c2-c2ccc(Oc3ccccc3)cc2)CC1 [Evobrutinib] | 0.131 | ~4 | 287 ng/mL and 669 nM |  |  |  |  |  |  |  | 
C=CC(=O)N1CCC[C@@H](n2c(=O)n(-c3ccc(Oc4ccccc4)cc3)c3c(N)nccc32)C1 [Tolebrutinib] | 0.397 | ~4 | 103 ng/mL and 226 nM | 9.6 | 4.4 | ≤ 4 | ≤ 4 | ≤ 4 |  |  | 
C[C@H]1CN(C2COC2)CCN1c1ccc(Nc2cc(-c3ccnc(N4CCn5c(cc6c5CC(C)(C)C6)C4=O)c3CO)cn(C)c2=O)nc1 [Fenebrutinib] | 0.147 |  | 553 ng/mL and 853 nM |  |  |  |  |  | 1.52e-05 | 19.8 | slightly prolonged
